According to ChEMBL document CHEMBL1201862, “PubChem BioAssay data set” (2004):
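Exposure lasted 48 hours, with cells grown in 96-well plates and compounds tested at five concentrations. GI50 marks 50% less growth.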 The source made the active and inactive calls. No stated cut-off is given here; in the data, active = GI50 up to about 1.1 µM and inactive = higher.

Experiments:
Assay in all cases: DTP human tumour cell line panel, 48 h
SK-OV-3 = tested on: SK-OV-3
NCI-H226 = tested on: NCI-H226
OVCAR-3 = tested on: OVCAR-3
NCI-H460 = tested on: NCI-H460
UACC-62 = tested on: UACC-62
HCT-15 = tested on: HCT-15
CAKI-1 = tested on: CAKI-1
UO-31 = tested on: UO-31
HOP-92 = tested on: HOP-92
PC-3 = tested on: PC-3
TK-10 = tested on: TK-10
K562 = tested on: K562
SK-MEL-5 = tested on: SK-MEL-5
NCI/ADR-RES = tested on: NCI/ADR-RES
OVCAR-4 = tested on: OVCAR-4
U-251 = tested on: U-251
NCI-H522 = tested on: NCI-H522
SF-539 = tested on: SF-539
SN12C = tested on: SN12C
SNB-75 = tested on: SNB-75

Row | Structure (SMILES) | GI50 (SK-OV-3) | GI50 (NCI-H226) | GI50 (OVCAR-3) | GI50 (NCI-H460) | GI50 (UACC-62) | GI50 (HCT-15) | GI50 (CAKI-1) | GI50 (UO-31) | GI50 (HOP-92) | GI50 (PC-3) | GI50 (TK-10) | GI50 (K562) | GI50 (SK-MEL-5) | GI50 (NCI/ADR-RES) | GI50 (OVCAR-4) | GI50 (U-251) | GI50 (NCI-H522) | GI50 (SF-539) | GI50 (SN12C) | GI50 (SNB-75)
1 | COc1ccc2c(c1)CC[C@@H]1[C@@H]2CC[C@]2(C)C(=O)/C(=C/c3ccc(O)c(OC)c3)C[C@@H]12 | > 100 µM (inactive) | 44.2 µM (inactive) | > 100 µM (inactive) | 39.4 µM (inactive) | 68.5 µM (inactive) | 28.3 µM | 67.8 µM (inactive) | 71 µM (inactive) | > 100 µM (inactive) | 39.1 µM (inactive) | 43.1 µM (inactive) | 50.5 µM (inactive) | 33.9 µM (inactive) | 44.2 µM (inactive) | 55.8 µM (inactive) | 51.3 µM (inactive) | – | – | – | –
2 | COC(=O)C(C/C=C(\C)c1ccccc1)C(C)=O (centres undefined) | > 100 µM (inactive) | > 72.6 µM (inactive) | 50.6 µM (inactive) | 85.3 µM (inactive) | > 63.4 µM (inactive) | 66.1 µM | – | 33.2 µM (inactive) | 17.1 µM (inactive) | – | – | 44.9 µM (inactive) | 59.6 µM (inactive) | 54.6 µM (inactive) | 56 µM (inactive) | 57.5 µM (inactive) | 76.7 µM (inactive) | > 100 µM (inactive) | > 100 µM (inactive) | 47.3 µM (inactive)
3 | CC(=O)c1ccc(OCC(O)CO)cc1 (centres undefined) | > 100 µM (inactive) | > 100 µM (inactive) | > 100 µM (inactive) | > 100 µM (inactive) | > 100 µM (inactive) | > 100 µM | > 100 µM (inactive) | > 100 µM (inactive) | > 100 µM (inactive) | – | > 100 µM (inactive) | 61.9 µM (inactive) | > 100 µM (inactive) | – | > 100 µM (inactive) | 49.8 µM (inactive) | > 100 µM (inactive) | > 100 µM (inactive) | > 100 µM (inactive) | > 100 µM (inactive)
4 | CCn1nc(C)c2c1C(=O)NCC(=O)N2 | > 100 µM (inactive) | – | > 100 µM (inactive) | > 100 µM (inactive) | > 100 µM (inactive) | > 100 µM | > 100 µM (inactive) | > 100 µM (inactive) | > 100 µM (inactive) | > 100 µM (inactive) | > 100 µM (inactive) | – | > 100 µM (inactive) | – | > 100 µM (inactive) | > 100 µM (inactive) | > 100 µM (inactive) | > 100 µM (inactive) | > 100 µM (inactive) | > 100 µM (inactive)
5 | Cc1ccc(NC(=O)C2C(=O)N(c3ccc(C)c(C)c3)C(=O)/C2=N\NC(N)=O)cc1C (centres undefined) | > 100 µM (inactive) | > 100 µM (inactive) | 38.4 µM (inactive) | > 100 µM (inactive) | 94.6 µM (inactive) | 79.4 µM | > 100 µM (inactive) | 57.4 µM (inactive) | 63.5 µM (inactive) | – | > 100 µM (inactive) | 52.7 µM (inactive) | > 100 µM (inactive) | – | > 100 µM (inactive) | 57.3 µM (inactive) | 55.1 µM (inactive) | > 100 µM (inactive) | 77.3 µM (inactive) | > 100 µM (inactive)
6 | O=C(Nc1ccccc1)N1CC(CN2CCN(c3ccccc3)CC2)OC1=O (centres undefined) | > 100 µM (inactive) | > 100 µM (inactive) | – | > 100 µM (inactive) | > 100 µM (inactive) | > 100 µM | > 100 µM (inactive) | > 100 µM (inactive) | > 100 µM (inactive) | > 100 µM (inactive) | > 100 µM (inactive) | > 100 µM (inactive) | > 100 µM (inactive) | > 100 µM (inactive) | > 100 µM (inactive) | > 100 µM (inactive) | 80.9 µM (inactive) | – | > 100 µM (inactive) | –
7 | O=NN(CCF)C(=O)NC1CC2CCC1C2 (centres undefined) | > 100 µM (inactive) | – | > 100 µM (inactive) | > 100 µM (inactive) | 86.9 µM (inactive) | > 74.3 µM | > 100 µM (inactive) | > 100 µM (inactive) | > 100 µM (inactive) | – | – | > 53 µM (inactive) | > 100 µM (inactive) | > 100 µM (inactive) | > 100 µM (inactive) | > 100 µM (inactive) | 73.6 µM (inactive) | > 100 µM (inactive) | > 100 µM (inactive) | > 100 µM (inactive)
8 | CC(CC[C@@]1(C)C(=O)CCC2O[C@]21C)[C@H]1C[C@@H](c2ccoc2)OC1=O (some centres undefined) | > 100 µM (inactive) | > 100 µM (inactive) | 26.9 µM (inactive) | > 100 µM (inactive) | 95.9 µM (inactive) | 35.7 µM | 26.5 µM (inactive) | 17.2 µM (inactive) | 28.4 µM (inactive) | 62.2 µM (inactive) | 35.8 µM (inactive) | 22.3 µM (inactive) | > 100 µM (inactive) | 45.6 µM (inactive) | 20.6 µM (inactive) | 35.9 µM (inactive) | 3.17 µM (inactive) | 35.7 µM (inactive) | 27.8 µM (inactive) | –
9 | Cc1ccc(C)c(NC(=O)C(=O)CC(=O)C2CCOC2=O)c1 (centres undefined) | > 100 µM (inactive) | > 100 µM (inactive) | > 100 µM (inactive) | > 100 µM (inactive) | > 100 µM (inactive) | > 100 µM | > 100 µM (inactive) | > 100 µM (inactive) | > 100 µM (inactive) | – | > 100 µM (inactive) | > 100 µM (inactive) | > 100 µM (inactive) | – | > 100 µM (inactive) | > 100 µM (inactive) | > 100 µM (inactive) | > 100 µM (inactive) | > 100 µM (inactive) | 67.5 µM (inactive)
10 | CC(=O)Nc1ccc(/C=C(\NC(=O)c2ccccc2)C(=O)NNS(=O)(=O)c2ccc(C)cc2)cc1 | > 100 µM (inactive) | > 100 µM (inactive) | > 100 µM (inactive) | 50.2 µM (inactive) | > 100 µM (inactive) | 18.4 µM | > 100 µM (inactive) | > 100 µM (inactive) | > 100 µM (inactive) | – | > 100 µM (inactive) | > 100 µM (inactive) | > 100 µM (inactive) | – | > 100 µM (inactive) | > 100 µM (inactive) | > 100 µM (inactive) | > 100 µM (inactive) | > 100 µM (inactive) | > 100 µM (inactive)
11 | O=S(=O)(O)c1ccc2c(/N=N/c3ccc(Sc4ccc(/N=N/c5c(O)ccc6cc(S(=O)(=O)O)ccc56)cc4)cc3)c(O)ccc2c1 | > 100 µM (inactive) | > 100 µM (inactive) | > 100 µM (inactive) | > 100 µM (inactive) | > 100 µM (inactive) | > 100 µM | > 100 µM (inactive) | > 100 µM (inactive) | > 100 µM (inactive) | > 100 µM (inactive) | > 100 µM (inactive) | > 100 µM (inactive) | > 100 µM (inactive) | > 100 µM (inactive) | > 100 µM (inactive) | > 100 µM (inactive) | > 100 µM (inactive) | > 100 µM (inactive) | > 100 µM (inactive) | –
12 | COc1cccc(-c2nc3c(C(=O)NCCN(C)C)cccc3[nH]2)c1 | 21.3 µM (inactive) | 14 µM (inactive) | 22.7 µM (inactive) | 11.1 µM (inactive) | 16.7 µM (inactive) | 18.9 µM | 16 µM (inactive) | 11.2 µM (inactive) | 18.5 µM (inactive) | – | – | 15.1 µM (inactive) | 16.7 µM (inactive) | 18 µM (inactive) | 26.3 µM (inactive) | 23.8 µM (inactive) | 15.2 µM (inactive) | 17.1 µM (inactive) | 17.4 µM (inactive) | 21.3 µM (inactive)
13 | CCOC(=O)C1=C(C(C)=O)CSC(c2ccccc2)=N1 | > 100 µM (inactive) | > 89.7 µM (inactive) | > 100 µM (inactive) | > 100 µM (inactive) | > 100 µM (inactive) | > 100 µM | > 100 µM (inactive) | 97.9 µM (inactive) | > 100 µM (inactive) | – | – | > 100 µM (inactive) | > 100 µM (inactive) | > 100 µM (inactive) | > 100 µM (inactive) | > 100 µM (inactive) | > 100 µM (inactive) | > 100 µM (inactive) | > 100 µM (inactive) | > 100 µM (inactive)
14 | O=C(c1ccccc1O)c1cc(-c2ncc3c(=O)c4ccccc4oc3n2)c(-c2ccccc2O)[nH]c1=O | 25.9 µM (inactive) | 15 µM (inactive) | 24 µM (inactive) | 23.3 µM (inactive) | 22.9 µM (inactive) | 24.9 µM | 8.02 µM (inactive) | 14.9 µM (inactive) | 23.4 µM (inactive) | – | – | 19.7 µM (inactive) | 12 µM (inactive) | 31.7 µM (inactive) | 22.5 µM (inactive) | – | 25.2 µM (inactive) | 1.47 µM (inactive) | 23.8 µM (inactive) | 19.2 µM (inactive)
15 | N=C1NC(c2ccc(Cl)cc2)=CC(c2cccc(Cl)c2)S1 (centres undefined) | 36.3 µM (inactive) | 26.7 µM (inactive) | 41.7 µM (inactive) | 26.4 µM (inactive) | 18.8 µM (inactive) | 13.1 µM | 24.1 µM (inactive) | 29 µM (inactive) | 16.9 µM (inactive) | 28.2 µM (inactive) | 22.4 µM (inactive) | 34.3 µM (inactive) | 27 µM (inactive) | 45.4 µM (inactive) | 20.3 µM (inactive) | 22.4 µM (inactive) | 20.1 µM (inactive) | 48.8 µM (inactive) | 27.7 µM (inactive) | –
16 | COC(=O)C1=C(C(=O)OC)SC2(S1)C1=C(CCC1)SC(C(=O)OC)=C2C(=O)OC | 16.9 µM (inactive) | – | 12.2 µM (inactive) | 5.37 µM (inactive) | 15 µM (inactive) | 6.08 µM | 5.87 µM (inactive) | 10.8 µM (inactive) | 10.2 µM (inactive) | 11.2 µM (inactive) | 14.9 µM (inactive) | 3.09 µM (inactive) | 14.9 µM (inactive) | 18.8 µM (inactive) | 15.1 µM (inactive) | 15.6 µM (inactive) | 2.99 µM (inactive) | 1.48 µM (inactive) | 10.7 µM (inactive) | –
